We go through 4 molecules from BindingDB's records for patent US20240287022 (Merck Sharp & Dohme, 2024).

In this test the target is T1, L-amino-acid oxidase (Homo sapiens, UniProt Q96RQ9).
T1 sequence (Q96RQ9 whole entry): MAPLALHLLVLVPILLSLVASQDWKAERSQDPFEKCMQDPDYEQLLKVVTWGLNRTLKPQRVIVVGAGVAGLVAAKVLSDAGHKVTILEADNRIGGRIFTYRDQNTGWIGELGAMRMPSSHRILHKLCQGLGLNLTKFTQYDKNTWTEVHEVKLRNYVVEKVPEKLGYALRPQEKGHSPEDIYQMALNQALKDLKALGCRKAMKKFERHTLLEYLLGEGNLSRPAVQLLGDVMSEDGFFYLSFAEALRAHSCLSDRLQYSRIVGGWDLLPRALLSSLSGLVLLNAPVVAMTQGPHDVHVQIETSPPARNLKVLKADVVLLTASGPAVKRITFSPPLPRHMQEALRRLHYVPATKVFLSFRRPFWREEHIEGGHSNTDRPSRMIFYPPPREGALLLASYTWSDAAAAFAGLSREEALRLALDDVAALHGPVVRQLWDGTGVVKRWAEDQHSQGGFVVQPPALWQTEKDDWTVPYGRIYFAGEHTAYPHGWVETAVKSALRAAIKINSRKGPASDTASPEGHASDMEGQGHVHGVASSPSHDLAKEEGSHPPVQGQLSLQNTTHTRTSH
The test is described as follows: IL4I1 Enzymatic Assay. The procedure:
nterleukin 4 inducible protein 1 (IL4I1) is an L-amino oxidase that catalyzes the oxidation of aromatic residues (Phe, Trp and Tyr): L-amino acid+H2O+O2→2-oxo acid+NH3+H2O2. Equal molar of H2O2 and the corresponding alpha-ketoacid are produced when IL4I1 and substrate are added. In this assay, the hydrogen peroxide generated by IL4I1 are then detected through a coupled reaction with Amplex Red (10-acetyl-3,7-dihydroxyphenoxazine) and […] (HRP) to produce Resorufin product that could be detected in the form of fluorescence signals. The assessment of the inhibitory effect of small molecules (EC50) on IL4I1 is measured by the effectiveness of the compounds to inhibit the production of H2O2.Using this assay, the potency (EC50) of each compound was determined from a ten-point (1:3 serial dilution; top compound concentration of 10000 nM) titration curve using the following outlined procedure. To each well of a black flat-bottom Greiner (Cat #781076) 384 well-plate, 25 nL of compound (0.1% DMSO in final assay volume of 25 μL) was dispensed, followed by the addition of 12.5 μL of 1× assay buffer (50 mM Hepes 7.0 and 0.005% Tween20 (Sigma, Cat #P8341; low peroxide grade)) containing 2 nM of recombinant IL4I1 (R&D Systems, Cat #5684-AO-020). Plates were placed in an ambient temperature humidified chamber for a four-hour pre-incubation with compound. Subsequently, each reaction was initiated by the addition of 12.5 μL 1× assay buffer containing 2 mM of each aromatic amino acids (Phe/Tyr/Trp), 0.1 mM Amplex Red and 2 U/mL of HRP. The final reaction in each well of 25 μL consists of 1 nM of IL4I1, 1 mM of each residues (Phe, Tyr and Trp), 0.05 mM Amplex Red and 1 U/mL of HRP. It should be noted that the concentrations of Amplex Red and HRP used here are in excess such that the conversion of H2O2 to Resorufin product occurs instantaneously and non-rate limiting.
`O=c1[nH]c2ccccc2cc1Cc1ccc(C2(F)CNC2)cc1` [US20240287022, Example 76] returned an EC50 of 0.0082 µM.

As for `O=c1[nH]c2ccncc2cc1Cc1ccc2scnc2c1` [US20240287022, Example 114], a half-maximal effect (EC50) was put at 0.0015 µM.

In turn, `Cn1c(=O)c(Cc2ccc(Cc3nnco3)cc2)cc2ccccc21` [US20240287022, Example 145] gave an EC50 of 0.154 µM.

In turn, `N#CCc1ccc(Cc2cc3ccccc3[nH]c2=O)cn1` [US20240287022, Example 93] came in with a half-maximal effective concentration (EC50) of 0.0144 µM.
